Data set [1] can be described thus: Aqueous solubility.
Data set [2] is described as follows: in vitro. The conditions noted are these: PAMPA, pH 7.4. In general terms: The PAMPA barrier holds no transporters, so it reflects passive diffusion.
Data set [3] relates to HeLa cells. The following applies: 100 μM.
The conditions of data set [4]: pH 7.4.
For data set [5], the system named is 45 receptors and channels. The following applies: 10 μM; radioligand binding and functional assays.
The conditions of data set [6]: MLM incubation.
In data set [7] the test system is Plk1 localization to centrosomes and kinetochores. The experiment in a line: Plk1 localization and spindle morphology by immunostaining in HeLa cells. It is filed as cell-based. The following applies: 100 μM, 12 h.
For data set [8] the following is noted: mice, 20 mg/kg, IP, whole period of the experiment.

Each structure is given as a SMILES string. Values joined by “and” are separate entries in the source; they are usually repeats but may differ in a detail not shown here. Identical values can stand only once.

This note sets out measurements from PMC7769008 (Journal of medicinal chemistry, 2020).

One may read the Papp as the rate of passage across a membrane or cell layer, normalised by area and donor concentration. High values mean fast passage, low ones slow passage.

In the case of `CCCn1c(=O)c2ccccc2n2c(=S)n(CN(C)C3CC3)nc12` [Compound 35, 2-((Cyclopropyl(methyl)amino)methyl)-4-propyl-1-thioxo-2,4-di-hydro-[1,2,4]triazolo[4,3-a]quinazolin-5(1H)-one], the “Solub. (μg/ml)” value in data set [1] is recorded as “Insol”.

In data set [2], `COc1cccc(CC(=O)NCCCn2c(=O)c3cc(F)ccc3n3c(=S)[nH]nc23)c1` [Compound 129, N-(3-(7-Fluoro-5-oxo-1-thioxo-1,2-dihydro-[1,2,4]triazolo[4,3-a]-quinazolin-4(5H)-yl)propyl)-2-(3-methoxyphenyl)acetamide] came in with a Papp of 311 ×10⁻⁶ cm/s.

Consider `CCCn1c(=O)c2cc(F)ccc2n2c(SC)nnc12` [Compound 144, 7-Fluoro-1-(methylthio)-4-propyl-[1,2,4]triazolo[4,3-a]-quinazolin-5(4H)-one], for which, in data set [3], the “ability to induce mitotic arrest and an antiproliferation effect” value (from here on “ability”) is “induced mitotic arrest but at a somewhat reduced level”.

Consider `CCCn1c(=O)c2ccccc2n2c(S)nnc12` [Compound 21, 4-Propyl-1-thioxo-2,4-dihydro-[1,2,4]triazolo[4,3-a]quinazolin-5(1H)-one], for which, in data set [4], the “PAMPA” value was 37.0 ×10⁻⁶ cm/s and 37 ×10⁻⁶ cm/s. Moreover, the “ability” value in data set [3] is “lacked a detectable level of cellular response”. Further, the potential off-target interactions result in data set [5] was “not detected”.

Turning to `CCCn1c(=O)c2cccc(F)c2n2c(=S)[nH]nc12` [Compound 139, 9-Fluoro-4-propyl-1-thioxo-2,4-dihydro-[1,2,4]triazolo[4,3-a]-quinazolin-5(1H)-one], in data set [3], the “ability” value is given as “lacked a detectable level of cellular response”.

Turning to `CN(C)CCn1c(=O)c2cc(F)ccc2n2c(=S)[nH]nc12` [Compound 70, 4-(2-(Dimethylamino)ethyl)-7-fluoro-1-thioxo-2,4-dihydro-[1,2,4]triazolo[4,3-a]quinazolin-5(1H)-one], the Papp in data set [2] was determined as 177 ×10⁻⁶ cm/s.

On to `CCCCn1c(=O)c2ccccc2n2c(S)nnc12` [Compound 23, 4-Butyl-1-thioxo-2,4-dihydro-[1,2,4]triazolo[4,3-a]quinazolin-5(1H)-one], for which the “PAMPA” value in data set [4] was 77.5 ×10⁻⁶ cm/s. Further, in data set [6], the “major metabolite (LC–MS/MS)” value was “glucuronidation is the major metabolite”.

Turning to `CCCn1c(=O)c2cc(F)ccc2n2c(=S)[nH]nc12` [Compound 64, 7-Fluoro-4-propyl-1-thioxo-2,4-dihydro-[1,2,4]triazolo[4,3-a]-quinazolin-5(1H)-one], the “PAMPA” value in data set [4] is 195 ×10⁻⁶ cm/s. The “ability” value in data set [3] is “lacked a detectable level of cellular response”.

Take `O=C(Cc1ccncc1)NCCCn1c(=O)c2cc(F)ccc2n2c(=S)[nH]nc12` [Compound 138, N-(3-(7-Fluoro-5-oxo-1-thioxo-1,2-dihydro-[1,2,4]triazolo[4,3-a]-quinazolin-4(5H)-yl)propyl)-2-(pyridine-4-yl)acetamide]: the “PAMPA” value in data set [4] was less than 1 ×10⁻⁶ cm/s.

On to `O=c1c2cc(F)ccc2n2c(=S)[nH]nc2n1CCN1CCC(F)(F)CC1` [Compound 89, 4-(2-(4,4-Difluoropiperidin-1-yl)ethyl)-7-fluoro-1-thioxo-2,4-di-hydro-[1,2,4]triazolo[4,3-a]quinazolin-5(1H)-one], for which the “PAMPA” value in data set [4] was found to be 234 ×10⁻⁶ cm/s.

As for `O=C(Cc1ccccc1C(F)(F)F)NCCCn1c(=O)c2cc(F)ccc2n2c(=S)[nH]nc12` [Compound 131, N-(3-(7-Fluoro-5-oxo-1-thioxo-1,2-dihydro-[1,2,4]triazolo[4,3-a]-quinazolin-4(5H)-yl)propyl)-2-(2-(trifluoromethyl)phenyl)-acetamide], the “PAMPA” value in data set [4] stood at 825 ×10⁻⁶ cm/s.

In the case of `O=c1c2cc(F)ccc2n2c(=S)[nH]nc2n1CCC1CCC(F)(F)CC1` [Compound 93, 4-(2-(4,4-Difluorocyclohexyl)ethyl)-7-fluoro-1-thioxo-2,4-dihydro-[1,2,4]triazolo[4,3-a]quinazolin-5(1H)-one], the “PAMPA” value in data set [4] is 201 ×10⁻⁶ cm/s.

For `O=c1c2cc(F)ccc2n2c(=S)[nH]nc2n1CCCO` [Compound 66, 7-Fluoro-4-(3-hydroxypropyl)-1-thioxo-2,4-dihydro-[1,2,4]-triazolo[4,3-a]quinazolin-5(1H)-one], in data set [4], the “PAMPA” value was 222 ×10⁻⁶ cm/s.

Turning to `O=c1c2cc(F)ccc2n2c(=S)[nH]nc2n1CC1CC1` [Compound 79, 4-(Cyclopropylmethyl)-7-fluoro-1-thioxo-2,4-dihydro-[1,2,4]-triazolo[4,3-a]quinazolin-5(1H)-one], in data set [4], the “PAMPA” value is 46.0 ×10⁻⁶ cm/s.

On to `CN1CCN(CC(=O)NCCCn2c(=O)c3cc(F)ccc3n3c(=S)[nH]nc23)CC1` [Compound 117, N-(3-(7-Fluoro-5-oxo-1-thioxo-1,2-dihydro-[1,2,4]triazolo[4,3-a]-quinazolin-4(5H)-yl)propyl)-2-(4-methylpiperazin-1-yl)acetamide], for which the “PAMPA” value in data set [4] is less than 1 ×10⁻⁶ cm/s.

Regarding `O=C(NCCCn1c(=O)c2cc(F)ccc2n2c(=S)[nH]nc12)C1CCOCC1` [Compound 115, N-(3-(7-Fluoro-5-oxo-1-thioxo-1,2-dihydro-[1,2,4]triazolo[4,3-a]-quinazolin-4(5H)-yl)propyl)tetrahydro-2H-pyran-4-carboxamide], the “PAMPA” value in data set [4] worked out at 8.0 ×10⁻⁶ cm/s.

As for `O=C(Cc1ccccn1)NCCCn1c(=O)c2cc(F)ccc2n2c(=S)[nH]nc12` [Compound 136, N-(3-(7-Fluoro-5-oxo-1-thioxo-1,2-dihydro-[1,2,4]triazolo[4,3-a]-quinazolin-4(5H)-yl)propyl)-2-(pyridine-2-yl)acetamide], the “PAMPA” value in data set [4] is 68.0 ×10⁻⁶ cm/s.

Turning to `O=c1c2cc(Cl)ccc2n2c(=S)[nH]nc2n1CCC(F)(F)F` [Compound 55, 7-Chloro-1-thioxo-4-(3,3,3-trifluoropropyl)-2,4-dihydro-[1,2,4]-triazolo[4,3-a]quinazolin-5(1H)-one], the “PAMPA” value in data set [4] came out at 257 ×10⁻⁶ cm/s.

Take `O=C(O)CCC(=O)NCCCn1c(=O)c2cc(F)ccc2n2c(=S)[nH]nc12` [Compound 106, 4-((3-(7-Fluoro-5-oxo-1-thioxo-1,2-dihydro-[1,2,4]triazolo[4,3-a]quinazolin-4(5H)-yl)propyl)amino)-4-oxobutanoic Acid]: the “PAMPA” value in data set [4] was less than 1 ×10⁻⁶ cm/s.

On to `CCCn1c(=O)c2ccccc2n2c(SC)nnc12` [Compound 143, 1-(Methylthio)-4-propyl-[1,2,4]triazolo[4,3-a]quinazolin-5(4H)-one], for which the spindle bipolarity result in data set [7] is recorded as “significantly compromised”. The “ability” value in data set [3] was “effectively induced rounded cells with apoptotic or aberrant chromosome morphologies”. Further, in data set [8], the signs of toxicity entry was “no signs of toxicity”.

In the case of `COc1ccccc1CC(=O)NCCCn1c(=O)c2cc(F)ccc2n2c(=S)[nH]nc12` [Compound 128, N-(3-(7-Fluoro-5-oxo-1-thioxo-1,2-dihydro-[1,2,4]triazolo[4,3-a]-quinazolin-4(5H)-yl)propyl)-2-(2-methoxyphenyl)acetamide], in data set [4], the “PAMPA” value is 379 ×10⁻⁶ cm/s.

Turning to `CCCn1c(=O)c2cccc(F)c2n2c(SC)nnc12` [Compound 145, 9-Fluoro-1-(methylthio)-4-propyl-[1,2,4]triazolo[4,3-a]-quinazolin-5(4H)-one], the “ability” value in data set [3] is listed as “effectively induced rounded cells with apoptotic or aberrant chromosome morphologies”.
